Measured values reported in US20060135569A1, “Use of benzisoselenazolone compounds against ischemic myocardial damage” (priority 2002, published 2006).
Marks after values point to notes of the source that are not given here.

Key:
TA97; TA98; TA100; TA102 = assay: Ames (mutagenesis) test, overall result in 4 strains; format: cell-based; details: 0.5, 5, 50 and 500 μg/dish
Method: (§1) To assess the mutagenic effects of 5 compounds (IMM-004; IMM-065; IMM-127; IMM-128; IMM-313), the Ames test was performed in 4 strains (TA97; TA98; TA100; TA102). The experiment was conducted with compounds at 4 concentration levels (0.5, 5, 50 and 500 μg/dish). […]

Na^+/Ca^2+ exchanger = molecular target: T1, Na^+/Ca^2+ exchanger (Cavia porcellus, UniProt P48766); assay: Na^+/Ca^2+ exchange current (INa—Ca), whole-cell patch clamp, intracellular Na^+ overload cell model; format: cell-based, guinea pig
T1 construct: endogenous in cells; host or cells: freshly isolated guinea pig ventricular myocytes
Text: 1. Establishment of Assaying Method for Biphasical Current Detection in Na^+/Ca^2+ Exchange System
Since the reverse mode of Na^+/Ca^2+ exchange process is one of the main mechanisms involving in ischemia/reperfusion insult, it is of great importance to establish cell model represented reverse mode Na^+/Ca^2+ exchange process for the development of drugs against ischemic injury. Therefore, we successfully established cell model of reverse mode Na^+/Ca^2+ exchange system by intracellular Na^+ dialysis technique, and recorded Na^+/Ca^2+ exchange currents by patch clamp experiment.
Internal solution contained certain concentration of NaCl was filled to the microcatheter, and ion exchange process between the cellular and internal solutions was conducted after whole cell currents were recorded by patch clamp. Na^+ contained in the internal solution was dialyzed into the cell; result in the high intracellular Na^+ concentration. After that, the cell was champed at a holding potential of −40 mV, then depolarized to +60 mV and followed by a conversely declining ramp stimuli at a speed of 80 mV·s^−1 and 2 s conditioning pulse, then repolarized to −100 mV with a frequency of 0.05 Hz. Under the stimulation protocol, current from outward to the inward direction was recorded by perfusing modified biphasical Tyrode solution (in which the outward and inward currents can be recorded simultaneously) with the addition of 1 mmol·L^−1 of BaCl2 and 2 mmol·L^−1 of CsCl to block K^+ channels, 1 μmol·L^−1 of verapamil to block L-type Ca^2+ channels, and 20 μmol·L^−1 of ouabain to block Na^+/K^+ ATPase, and 20 mmol·L^−1 of TEA to block potassium channels. The recorded inward currents were presented in a linear manner owing to the blockade of other time-dependent currents. With the increase of intracellular Na^+ level and prolongation of time, the reverse mode of Na^+/Ca^2+ exchange process was activated. […] Under such experimental conditioning, the maximum reverse mode current was recorded 3 min after cell crushed. No significant “run-down” was observed within the record period of 8 minutes. The inward and outward current were inhibited by 5 mmol·L^−1 of Ni^2+ treatment, and the experiment result in two current-voltage curves in the absence or presence of Ni^2+. The Ni^2+ sensitive current, also called electrophysiological Na^+/Ca^2+ exchange current (INa·Ca), was the minus result of two current-voltage curves. The reverse mode potential of INa—Ca was about −20 mV
Male guinea pigs weighting 250˜280 g provided by the Animal Center of the Chinese Academy of Medical Sciences were hammered and sacrificed. The chest was opened and the heart was removed quickly. Fatty tissue and pericardium were removed in a Ca^2+-free solution at 4° C., and heart was sequentially mounted on a Langendorff apparatus. First, the heart was perfused conversely via the aorta for 6 min with Ca^2+-free solution in order to wash out residual blood, then the heart expands and the color of it turns to pink. Then the heart was perfused with Ca^2+-free solution containing 0.1 mg/ml of pronase E, 0.5 mg/ml defatted bovine serum albumin (BSA) and 150 μM Ca^2+ for 2˜3 min, until the heart expanded and became soft. The atrium was removed, and the digested heart was minced with scissors, stirred in a beaker at 37° C. for 5˜10 min. The supernatant was diluted with Ca^2+-free solution containing 0.5 mg/ml BSA and 1.8 mM Ca^2+. The supernatant was placed at room temperature (20˜24° C.) for 1 hr and then subjected to the experiment. During the whole perfusion period, pressure was kept at 70 cmH2O and the temperature of solution was kept at 37° C. with continuously gassed with 95% O2 and 5% CO2.
Rod-shaped cells with clear striations and intact membrane were used. […]

TA100 = assay: Ames test, strain TA100; format: cell-based
Method: as §1

TA97 = assay: Ames test, strain TA97; format: cell-based
Method: as §1

[1] = system: arrhythmia caused by ischemia/reperfusion insults in anaesthetic rats; assay: Ischemia/reperfusion arrhythmia in anaesthetic rats, intravenous injection; format: in vivo, rat; details: 3 mg/Kg intravenous (femoral vein), rats
Text: (1) Protective Effects of the Tested Compounds on Myocardial Insults in Rats after Intravenously Injection
Arrhythmic potency induced by myocardial insults was used to assess the potential protective effect of the compounds.

TA98 = assay: Ames test, strain TA98; format: cell-based
Method: as §1

[2] = system: isolated rat hearts subjected to ischemia-reperfusion (I/R); assay: Isolated heart subjected to ischemia/reperfusion injury (arrhythmia)
Method: Based on the pre-electrophysiological cell model screening, we have compared the inhibition ratios of the outward current by reverse-transportation of Na^+/Ca^2+ exchange, and further in vitro tests on isolated rat hearts subjected to ischemia-reperfusion (I/R) were conducted. Prolongation of ventricular arrhythmic, incidence rate of ventricular extrasystole, ventricular tachycardia/ventricular fibrillation (VT/VF) were recorded to evaluate the protective actions of drugs on myocardial injury.
On the basis of above screening results obtained from electrophysiological studies, and the result from comparative study on the research of the inhibitory effect of compounds on reverse mode Na^+/Ca^2+ exchange process, 7 effective compounds were subjected to in vitro study. Among which, IMM-313, IMM-004 and IMM-132 have structures containing chlorine; IMM-127, IMM-128 and IMM-129 have structures containing fluorine; and IMM-065 has a structure containing OH. The experiment performed in the isolated heart subjected to ischemia/reprefusion insult. Prolongation of ventricular arrhythmic, incidence of ventricular extrasystole, ventricular tachycardia/ventricular fibrillation (VT/VF) were recorded in order to evaluate the protective actions of drugs on myocardial injury.

TA102 = assay: Ames test, strain TA102; format: cell-based
Method: as §1

[3] = Example 1 table, myocardial cell
[4] = screening of 22 candidate compounds
[5] = 10^−6 M, isolated heart ischemia/reperfusion

C/C(=N\O)c1ccc(-n2[se]c3ccccc3c2=O)cc1 [IMM-065]
mutagenic effect (Ames test) (TA97; TA98; TA100; TA102): No evidence for a mutagenic effect
Inhibitory rate of inward INa—Ca (%) (Na^+/Ca^2+ exchanger; [3]): 43%
Inhibitory rate of outward INa—Ca (%) (Na^+/Ca^2+ exchanger; [3]): 55%
Inhibitory rate of inward INa—Ca (%) (Na^+/Ca^2+ exchanger; [4]): 43%
Inhibitory rate of outward INa—Ca (%) (Na^+/Ca^2+ exchanger; [4]): 55* %
TA100 +S9 (TA100; 0.5 μg/dish): 176.67 ± 24.57
TA100 −S9 (TA100; 0.5 μg/dish): 153.67 ± 13.47
TA100 +S9 (TA100; 5 μg/dish): 167.00 ± 58.86
TA100 −S9 (TA100; 5 μg/dish): 60.33 ± 19.91
TA100 +S9 (TA100; 50 μg/dish): 180.33 ± 29.83
TA100 −S9 (TA100; 50 μg/dish): 108.67 ± 6.79
TA100 +S9 (TA100; 500 μg/dish): 0
TA100 −S9 (TA100; 500 μg/dish): 62.33 ± 20.53
TA97 +S9 (TA97; 0.5 μg/dish): 249.33 ± 35.83
TA97 −S9 (TA97; 0.5 μg/dish): 62.67 ± 4.49
TA97 +S9 (TA97; 5 μg/dish): 76.00 ± 15.29
TA97 −S9 (TA97; 5 μg/dish): 73.67 ± 6.64
TA97 +S9 (TA97; 50 μg/dish): 82.67 ± 12.92
TA97 −S9 (TA97; 50 μg/dish): 69.67 ± 3.77
TA97 +S9 (TA97; 500 μg/dish): 0
TA97 −S9 (TA97; 500 μg/dish): 59.67 ± 0.94
incidence and duration of VT, VF, VE / ventricular arrhythmic [1]: no significant effect
TA98 +S9 (TA98; 0.5 μg/dish): 56.50 ± 4.50
TA98 −S9 (TA98; 0.5 μg/dish): 52.00 ± 3.74
TA98 +S9 (TA98; 5 μg/dish): 61.67 ± 11.15
TA98 −S9 (TA98; 5 μg/dish): 42.00 ± 10.80
TA98 +S9 (TA98; 50 μg/dish): 42.00 ± 5.72
TA98 −S9 (TA98; 50 μg/dish): 45.33 ± 5.44
TA98 +S9 (TA98; 500 μg/dish): 168.00 ± 32.00
TA98 −S9 (TA98; 500 μg/dish): 54.00 ± 12.83
protective effects on myocardial insults ([2]; 10^−6M, isolated heart): significant protective effects
AAT: arrhythmic occurrence time, Time [2, 5]: 13.09 ± 3.76 min
VF (ventricular fibrillation) Incidence rate (%) [2, 5]: 50%
VPS (ventricular premature beats) Incidence rate (%) [2, 5]: 30%
VT (ventricular tachycardia) Incidence rate (%) [2, 5]: 70%
TA102 +S9 (TA102; 0.5 μg/dish): 270.00 ± 10.00
TA102 −S9 (TA102; 0.5 μg/dish): 244.00 ± 12.33
TA102 +S9 (TA102; 5 μg/dish): 308.00 ± 31.16
TA102 −S9 (TA102; 5 μg/dish): 246.00 ± 24.00
TA102 +S9 (TA102; 50 μg/dish): 339.33 ± 48.99
TA102 −S9 (TA102; 50 μg/dish): 217.33 ± 15.43
TA102 +S9 (TA102; 500 μg/dish): 287.33 ± 41.89
TA102 −S9 (TA102; 500 μg/dish): 215.00 ± 75.59
